The text below walks through data of US5627199A, “6-heterocyclic-4-amino-1,2,2A,3,4,5-hexahydrobenz [CD] indoles” (ELi Lilly and Company, priority 1995, dated 1997).

Where a name gives a salt, the structure may show the parent alone.

One assay addresses 5-HT1D receptor. The assay can be described thus: 5-HT1D receptor in vitro binding ([3H]5-HT, bovine caudate membranes). Particulars: inhibition of [3H]5-HT (1.7-1.9 nM) binding by 50%, 8-OH-DPAT and mesulergine (100 nM each) as masks, pH 7.4, 10 min at 37° C. As to the method: The affinities of certain of the compounds of Formula 1 at the central 5-HT1D binding sites were determined using a modification of the binding assay described by Heuring and Peroutka, J. Neurosci., 7, 894 (1987). Bovine brains were obtained and the caudate nuclei were dissected out and frozen at -70° C. until the time that the membranes were prepared for the binding assays. At that time the tissues were homogenized in 40 volumes of ice-cold Tris-HCl buffer (50 mM, pH 7.4 at 22° C.) with a Techmar Tissumizer (setting 65 for 15 sec), and the homogenate was centrifuged at 39,800× g for 10 minutes. The resulting pellet was then resuspended in the same buffer, and the centrifugation and resuspension process was repeated three additional times to wash the membranes. Between the second and third washes the resuspended membranes were incubated for 10 minutes at 37° C. to facilitate the removal of endogenous 5-HT. The final pellet was resuspended in the buffer to a concentration of 25 mg of original tissue wet weight/ml for use in the binding assay. […] The assay tubes were incubated for 10 minutes at 37° C. and the contents were then rapidly filtered through GF/B filters (pretreated with 0.5% polyethylenimine), followed by four 1 ml washes with ice-cold buffer. The radioactivity trapped by the filters was quantitated by liquid scintillation spectrometry, and specific [^3 H]5-HT binding to the 5-HT1D sites was defined as the difference between [^3 H]5-HT bound in the presence and absence of 10 μM 5-HT.
In Table 2, the first column provides the Example Number of the compound evaluated while the second column provides the amount of test compound (expressed in nanomolar concentration) required to inhibit the binding of [^3 H]5-HT by 50% (indicated as IC50).

In the next assay the target is T1, 5-HT1A receptor (Rattus norvegicus, UniProt P19327).
T1 construct: the brains were rapidly chilled and dissected to obtain the hippocampi; from tissue; host or cells: hippocampal membranes of male Sprague-Dawley rats
T1 sequence (P19327 1-422): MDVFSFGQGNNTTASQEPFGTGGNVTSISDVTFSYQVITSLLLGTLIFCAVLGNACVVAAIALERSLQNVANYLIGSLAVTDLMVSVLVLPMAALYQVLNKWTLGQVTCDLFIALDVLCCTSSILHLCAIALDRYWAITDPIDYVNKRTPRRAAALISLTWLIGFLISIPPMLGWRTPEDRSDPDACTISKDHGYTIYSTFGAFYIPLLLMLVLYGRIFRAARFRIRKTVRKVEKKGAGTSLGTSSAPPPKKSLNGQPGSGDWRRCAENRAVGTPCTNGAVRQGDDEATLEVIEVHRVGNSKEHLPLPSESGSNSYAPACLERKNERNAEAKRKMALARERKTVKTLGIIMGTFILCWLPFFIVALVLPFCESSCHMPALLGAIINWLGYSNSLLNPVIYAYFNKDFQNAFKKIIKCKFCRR
Briefly: 5-HT1A receptor in vitro binding ([3H]8-OH-DPAT, rat hippocampal membranes). On the set-up: species or system male Sprague-Dawley rats. Particulars: inhibition of [3H]8-OH-DPAT (1.0 nM) binding by 50%, pH 7.4, 10 min at 37° C. As to the method: The affinities of certain of the compounds of Formula 1 at the central 5-HT1A receptors were determined using a modification of the binding assay described by Taylor et al., J. Pharmacol. Exp. Ther. 236, 118-125 (1986). Membranes for the binding assay were prepared from male Sprague-Dawley rats (150-250 g). The animals were killed by decapitation, and the brains were rapidly chilled and dissected to obtain the hippocampi. Membranes from the hippocampi were either prepared that day, or the hippocampi were stored frozen (-70° C.) until the day of preparation. The membranes were prepared by homogenizing the tissue in 40 volumes of ice-cold Tris-HCl buffer (50 mM, pH 7.4 at 22° C.) using a Techmar Tissumizer (setting 65 for 15 sec), and the homogenate was centrifuged at 39800× g for 10 minutes. The resulting pellet was then resuspended in the same buffer, and the centrifugation and resuspension process was repeated three additional times to wash the membranes. Between the second and third washes the resuspended membranes were incubated for 10 minutes at 37° C. to facilitate the removal of endogenous ligands. The final pellet was resuspended in 67 mM Tris-HCl, pH 7.4, to a concentration of 2 mg of tissue original wet weight/200 μl. This homogenate was stored frozen (-70° C.) until the day of the binding assay. […] The assay tubes were incubated for 10 minutes at 37° C. and the contents were then rapidly filtered through GF/B filters (pretreated with 0.5% polyethylenimine), followed by four 1 ml washes with ice-cold buffer. The radioactivity trapped by the filters was quantitated by liquid scintillation spectrometry, and specific [^3 H]8-OH-DPAT binding to the 5-HT1A sites was defined as the difference between [^3 H]8-OH-DPAT bound in the presence and absence of 10 μM 5-HT.
In Table 1, the first column provides the Example Number of the compound evaluated while the second column provides the amount of test compound (expressed in nanomolar concentration) required to inhibit the binding of [^3 H]8-OH-DPAT by 50% (indicated as IC50).

What is called IC50 is the midpoint of a concentration-inhibition curve. Low values mean greater potency, high ones weaker potency. For the molecule `CCCN(CCC)C1Cc2c(-c3ccno3)ccc3c2C(CN3)C1` (racemic) [Example 7, (±)-6-(5-isoxazolyl)-4-(di-n-propylamino)-1,2,2a,3,4,5-hexahydrobenz[cd]indole.2HCl], the half-maximal inhibitory concentration (IC50) at 5-HT1D receptor worked out at 23.6 nM; at 5-HT1A receptor, 1.95 nM.

For `CCCN(CCC)[C@H]1Cc2c(-c3cc[nH]n3)ccc3c2[C@@H](CN3)C1` [Example 6, (+)(2aS,4R)-6-(3-pyrazolyl)-4-(di-n-propylamino)-1,2,2a,3,4,5-hexahydrobenz[cd]indole.2HCL], the IC50 was determined as 30 nM at 5-HT1D receptor and 6.37 nM on 5-HT1A receptor.

For `CCCN(CCC)[C@H]1Cc2c(-c3ccon3)ccc3c2[C@@H](CN3)C1` [Example 8, (+)(2aS,4R)-6-(3-isoxazolyl)-4-(di-n-propylamino)-1,2,2a,3,4,5-hexahydrobenz[cd]indole.2 HCl], the results for the IC50 at 5-HT1D receptor and on 5-HT1A receptor were 9.12 nM and 0.91 nM, respectively.

For the molecule `CCCN(CCC)[C@H]1Cc2c(-c3ccno3)ccc3c2[C@@H](CN3)C1` [Example 10, (+)(2aS, 4R)-6-(5-isoxazolyl)-4-(di-n-propylamino)-1,2,2a,3,4,5-hexahydrobenz[cd]indole.2 HCl], the IC50 came out at 11.2 nM at 5-HT1D receptor and 0.73 nM at 5-HT1A receptor.

Consider `CCCN(CCC)[C@@H]1Cc2c(-c3ccno3)ccc3c2[C@H](CN3)C1` [Example 11, (-)(2aR,4S)-6-(5-isoxazolyl)-4-(di-n-propylamino)-1,2,2a,3,4,5-hexahydrobenz[cd]indole.2 HCl], for which the IC50 is 1380 nM on 5-HT1D receptor and 2.08 nM at 5-HT1A receptor.

For the molecule `CCCN(CCC)[C@@H]1Cc2c(-c3nc(-c4ccccc4)no3)ccc3c2[C@H](CN3)C1` [Example 12, (2aR,4S)-6-(3-phenyl-1,2,4-oxadiazol-5-yl)-4-(di-n-propylamino)-1,2,2a,3,4,5-hexahydrobenz[cd]indole], at 5-HT1A receptor, the IC50 was found to be 105 nM.

As to `CCCN(CCC)[C@@H]1Cc2c(-c3ccco3)ccc3c2[C@H](CN3)C1` [Example 13, (-)(2aR,4S)-6-(2-furyl)-4-(di-n-propylamino)-1,2,2a,3,4,5-hexahydrobenz[cd]indole], the half-maximal inhibitory concentration (IC50) turned out to be 1890 nM on 5-HT1D receptor and 21.1 nM at 5-HT1A receptor.

Take `CCCN(CCC)[C@H]1Cc2c(-c3ccco3)ccc3c2[C@@H](CN3)C1` [Example 14, (+)(2aS,4R)-6-(2-furyl)-4-(di-n-propylamino)-1,2,2a,3,4,5-hexahydrobenz[cd]indole]: the IC50 on 5-HT1D receptor came out at 43.1 nM; at 5-HT1A receptor, 5.3 nM.

Regarding `CCCN(CCC)[C@H]1Cc2c(-c3ccoc3)ccc3c2[C@@H](CN3)C1` [Example 15, (+)(2aS,4R)-6-(3-furyl)-4-(di-n-propylamino)-1,2,2a,3,4,5-hexahydrobenz[cd]indole], the figures for the IC50 at 5-HT1D receptor and at 5-HT1A receptor were 19.4 nM and 2.74 nM, respectively.

`CCCN(CCC)[C@H]1Cc2c(-c3ccccn3)ccc3c2[C@@H](CN3)C1` [Example 17, (+)(2aS, 4R)-6-(2-pyridyl)-4-(di-n-propylamino)-1,2,2a,3,4,5-hexahydrobenz[cd]indol]: the results for the IC50 at 5-HT1D receptor and at 5-HT1A receptor were 163 nM and 17.3 nM, respectively.

As to `CCCN(CCC)[C@H]1Cc2c(-c3cccnc3)ccc3c2[C@@H](CN3)C1` [Example 18, (+)(2aS,4R)-6-(3-pyridyl)-4-(di-n-propylamino)-1,2,2a,3,4,5-hexahydrobenz[cd]indole], the IC50 on 5-HT1D receptor amounted to 40.3 nM; at 5-HT1A receptor, 1.92 nM.
